Reference: ChEMBL document CHEMBL1129689, “Unsaturated side chain beta-11-hydroxyhexahydrocannabinol analogs” (J Med Chem, 1996)
pKi: −log10 of the molar value.

Experiments:
Cannabinoid receptor 2 = Cannabinoid receptor 2 (Mus musculus, UniProt P47936); assay: Compound was evaluated for its ability to displace specifically bound [3H]CP-55940 from a Cannabinoid receptor 2 enriched mouse spleen preparation.; type: tissue-based
Cannabinoid receptor 1 = Cannabinoid receptor 1 (Rattus norvegicus, UniProt P20272); assay: Compound was evaluated for its ability to displace specifically bound [3H]CP-55940 from a Cannabinoid receptor 1 enriched rat brain microsome preparation.
Chain of Cannabinoid receptor 1 (P20272 whole entry): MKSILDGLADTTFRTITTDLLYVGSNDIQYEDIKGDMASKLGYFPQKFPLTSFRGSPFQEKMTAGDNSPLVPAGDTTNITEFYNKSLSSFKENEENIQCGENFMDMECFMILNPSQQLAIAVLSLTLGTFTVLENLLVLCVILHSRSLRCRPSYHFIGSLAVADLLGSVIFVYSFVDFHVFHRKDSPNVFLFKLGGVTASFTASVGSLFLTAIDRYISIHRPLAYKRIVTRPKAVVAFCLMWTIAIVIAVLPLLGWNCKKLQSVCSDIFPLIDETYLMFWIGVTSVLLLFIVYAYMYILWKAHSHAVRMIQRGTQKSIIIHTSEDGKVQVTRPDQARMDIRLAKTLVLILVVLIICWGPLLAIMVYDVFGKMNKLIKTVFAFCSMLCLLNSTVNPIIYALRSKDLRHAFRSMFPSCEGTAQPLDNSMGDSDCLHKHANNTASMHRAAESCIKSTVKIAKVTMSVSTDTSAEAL

Chain of Cannabinoid receptor 2 (P47936 whole entry): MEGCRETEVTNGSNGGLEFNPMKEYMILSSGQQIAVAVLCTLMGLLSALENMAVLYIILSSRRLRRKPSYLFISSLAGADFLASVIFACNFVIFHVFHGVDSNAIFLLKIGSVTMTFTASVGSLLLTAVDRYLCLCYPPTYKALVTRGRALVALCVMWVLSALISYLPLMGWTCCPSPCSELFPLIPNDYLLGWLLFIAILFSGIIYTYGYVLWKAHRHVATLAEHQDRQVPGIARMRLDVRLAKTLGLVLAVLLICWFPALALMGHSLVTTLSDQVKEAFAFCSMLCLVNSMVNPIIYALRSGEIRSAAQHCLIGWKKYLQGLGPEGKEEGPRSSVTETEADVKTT

Structure (SMILES)	pKi (Cannabinoid receptor 2)	pKi (Cannabinoid receptor 1)
CCCCC/C=C\c1cc(O)c2c(c1)OC(C)(C)[C@@H]1CC[C@@H](CO)C[C@@H]21	8.02	9.10
CCCCC/C=C/c1cc(O)c2c(c1)OC(C)(C)[C@@H]1CC[C@@H](CO)C[C@@H]21	8.28	8.92
CCCCCCCc1cc(O)c2c(c1)OC(C)(C)[C@@H]1CC[C@@H](CO)C[C@@H]21	7.84	–
CCCCCC#Cc1cc(O)c2c(c1)OC(C)(C)[C@@H]1CC[C@@H](CO)C[C@@H]21	7.21	8.24
